Laboratory results published in patent US9365604B2, “Oligomer-nucleoside phosphate conjugates” (NEKTAR THERAPEUTICS, priority 2007, dated 2016).
Read-outs that look alike come from different tables or passages of the source.

Key:
PANC-1 [1] = settings: Zajchowski et al. 2005; cited from earlier work
in vitro [2] = settings: human, Caco-2
From the text: (§5) Bi-Directional Permeability of PEG-Floxuridine Conjugates in Caco-2 and MDCK Cells

Caco-2 cells [3] = test system: Caco-2 cells
From the text: as §5

MIA PaCa-2 = assay: In vitro cytotoxicity assay (CellTiter-Glo); type: cell-based; settings: Homo sapiens, 72 h exposure, CellTiter-Glo
Experimental: (§1) The objective of these studies were to determine the IC50 values for PEG-floxuridine conjugates against floxuridine-resistant cell lines based on data from previous Xenograft studies. The cells were exposed for 72 h, and cell viability assessed by using the CellTiter-Glo assay.
(§2) The objective of these studies was to determine the IC50 values for PEG-gemcitabine conjugates against gemcitabine-resistant cell lines based on data from previous Xenograft studies. The cells were exposed for 72 h, and cell viability assessed by using the CellTiter-Glo assay.

HT-29 = assay: In vitro cytotoxicity assay (CellTiter-Glo); type: cell-based; settings: Homo sapiens, 72 h exposure, CellTiter-Glo
Experimental: as §1, §2

HCT-116 = assay: In vitro cytotoxicity assay (CellTiter-Glo); type: cell-based; settings: Homo sapiens, 72 h exposure, CellTiter-Glo
Experimental: as §1, §2

HT29 = assay: Sulforhodamine B (SRB) growth inhibition assay; type: cell-based, Human; settings: Homo sapiens, HT-29, SRB assay
Experimental: (§3) In Vitro Screening of PEG-Gemcitabine Monophosphate in Selected Human Cancer Cell Lines
(§4) The aim was to determine the GI50 values for PEG-floxuridine conjugates against a panel of cell lines, and based on previous data from Xenograft studies. […] The test articles were solubilized in dimethylsulfoxide and were tested at four different molar (M) concentrations; 10^−4, 10^−5, 10^−6, M. GI50 (the concentration needed to reduce the growth of treated cells to half that of untreated control cells) was calculated for each condition ([(Ti−Tz)/(C-Tz)]×100=50, where Ti, Tz, and C refer to absorbance values obtained from each tested concentration, time zero, and control treatment, respectively).
as §4, with “The objective” for “The aim”, “the IC50” for “the GI50”, “for PEG-gemcitabine” for “for PEG-floxuridine”, “in dimethyl sulfoxide” for “in dimethylsulfoxide”, “10^−6, 10^−7” for “10^−6,”, “condition ([(Ti−Tz)/(C−Tz)]×100=50,” for “condition ([(Ti−Tz)/(C-Tz)]×100=50,”

Hop62 = assay: Sulforhodamine B (SRB) growth inhibition assay; type: cell-based, Human; settings: Homo sapiens, HOP-62, SRB assay
Experimental: as §3, §4
as §4, with “The objective” for “The aim”, “the IC50” for “the GI50”, “for PEG-gemcitabine” for “for PEG-floxuridine”, “in dimethyl sulfoxide” for “in dimethylsulfoxide”, “10^−6, 10^−7” for “10^−6,”, “condition ([(Ti−Tz)/(C−Tz)]×100=50,” for “condition ([(Ti−Tz)/(C-Tz)]×100=50,”

A2780 = assay: Sulforhodamine B (SRB) growth inhibition assay; type: cell-based, Human; settings: Homo sapiens, SRB assay
Experimental: as §3, §4
as §4, with “The objective” for “The aim”, “the IC50” for “the GI50”, “for PEG-gemcitabine” for “for PEG-floxuridine”, “in dimethyl sulfoxide” for “in dimethylsulfoxide”, “10^−6, 10^−7” for “10^−6,”, “condition ([(Ti−Tz)/(C−Tz)]×100=50,” for “condition ([(Ti−Tz)/(C-Tz)]×100=50,”

MCF7 = assay: Sulforhodamine B (SRB) growth inhibition assay; type: cell-based, Human; settings: Homo sapiens
Experimental: as §3, §4
as §4, with “The objective” for “The aim”, “the IC50” for “the GI50”, “for PEG-gemcitabine” for “for PEG-floxuridine”, “in dimethyl sulfoxide” for “in dimethylsulfoxide”, “10^−6, 10^−7” for “10^−6,”, “condition ([(Ti−Tz)/(C−Tz)]×100=50,” for “condition ([(Ti−Tz)/(C-Tz)]×100=50,”

[4] = Stability in cell culture medium (floxuridine release, HPLC); type: in vitro ADME
Experimental: The frozen samples were thawed and homogenized by vortex mixing. A 10 μl aliquot of the sample was transferred into a clean EPPENDORF tube. Samples were diluted with 190 μl methanol: water mixture (1:1, v/v). The tubes were vortex mixed and centrifuged for 10 min. The supernatant was transferred to HPLC vials and 10 μl volume of the sample was injected onto the HPLC system.

MDCK cells [5] = test system: MDCK cells
From the text: as §5

DU145 = assay: Sulforhodamine B (SRB) growth inhibition assay; type: cell-based, Human; settings: Homo sapiens, DU-145, SRB assay, cells exposed for 24 h, read-out: GI50 values (μM) DU145
Experimental: as §4
as §4, with “The objective” for “The aim”, “the IC50” for “the GI50”, “for PEG-gemcitabine” for “for PEG-floxuridine”, “in dimethyl sulfoxide” for “in dimethylsulfoxide”, “10^−6, 10^−7” for “10^−6,”, “condition ([(Ti−Tz)/(C−Tz)]×100=50,” for “condition ([(Ti−Tz)/(C-Tz)]×100=50,”

[6] = Bi-directional permeability in MDCK cells; settings: dog
From the text: as §5

CAKI-1 = assay: In vitro cytotoxicity assay (CellTiter-Glo); type: cell-based; settings: Homo sapiens, 72 h exposure, CellTiter-Glo
[7] = Bi-directional permeability in Caco-2 cells; settings: human
From the text: as §5

in vitro [8] = settings: dog, MDCK
From the text: as §5

COLO205 = assay: Sulforhodamine B (SRB) growth inhibition assay; type: cell-based, Human; settings: Homo sapiens, COLO 205, COLO205, SRB assay
Experimental: as §3, §4
as §4, with “The objective” for “The aim”, “the IC50” for “the GI50”, “for PEG-gemcitabine” for “for PEG-floxuridine”, “in dimethyl sulfoxide” for “in dimethylsulfoxide”, “10^−6, 10^−7” for “10^−6,”, “condition ([(Ti−Tz)/(C−Tz)]×100=50,” for “condition ([(Ti−Tz)/(C-Tz)]×100=50,”

HCT15 = assay: Sulforhodamine B (SRB) growth inhibition assay; type: cell-based, Human; settings: Homo sapiens, HCT-15, SRB assay
Experimental: as §3, §4
as §4, with “The objective” for “The aim”, “the IC50” for “the GI50”, “for PEG-gemcitabine” for “for PEG-floxuridine”, “in dimethyl sulfoxide” for “in dimethylsulfoxide”, “10^−6, 10^−7” for “10^−6,”, “condition ([(Ti−Tz)/(C−Tz)]×100=50,” for “condition ([(Ti−Tz)/(C-Tz)]×100=50,”

in vitro [9] = settings: human
Experimental: Cells were inoculated into 24-well microtiter plates in 100 μL at 5×10^3 cells/well, in duplicate. After 24 h, test articles were added to the cells for 24 or 48 h, after which time the supernatant from each of the wells was collected and stored below −15° C. until LC/MS analysis.

PANC-1 [10] = assay: In vitro cytotoxicity assay (CellTiter-Glo); type: cell-based; settings: Homo sapiens, 72 h exposure
Experimental: as §2
The PEG-gemcitabine derivatives and gemcitabine inhibited the growth of most of the cell lines with IC50 values from the nM to low μM range, except for PANC-1 cells. Like the previous study, some of the IC50 values should be interpreted carefully because the concentration range tested was not centered around the IC50. […] The PANC-1 pancreatic cell line, in contrast to BxPC-3, Capan-1, or MIA-PaCa-2, has been shown previously to be resistant in vitro to gemcitabine, and 4′-thio-FAC, a deoxycytidine sulfur- and fluoro-substituted analog (Zajchowski et al., (2005). Int J Cancer. 114(6), 1002-9).

MDCK cells [11] = assay: Bi-directional permeability in MDCK cells
From the text: as §5

Caco-2 cells [12] = assay: Bi-directional permeability in Caco-2 cells
From the text: as §5

K-562 = assay: In vitro cytotoxicity assay (CellTiter-Glo); type: cell-based; settings: Homo sapiens, K562, 72 h exposure, CellTiter-Glo
Experimental: as §2

CCRF-CEM = assay: In vitro cytotoxicity assay (CellTiter-Glo); type: cell-based; settings: Homo sapiens, 72 h exposure, CellTiter-Glo
Experimental: as §2

DLD-1 = assay: In vitro cytotoxicity assay (CellTiter-Glo); type: cell-based; settings: Homo sapiens, 72 h exposure, CellTiter-Glo
Experimental: as §2

NCI-H460 = assay: In vitro cytotoxicity assay (CellTiter-Glo); type: cell-based; settings: Homo sapiens, 72 h exposure, CellTiter-Glo
Experimental: as §2

SW-620 = assay: In vitro cytotoxicity assay (CellTiter-Glo); type: cell-based; settings: Homo sapiens, 72 h exposure, CellTiter-Glo
Experimental: as §2

RL = assay: In vitro cytotoxicity assay (CellTiter-Glo); type: cell-based; settings: Homo sapiens, 72 h exposure, CellTiter-Glo
Experimental: as §2

HL-60 = assay: In vitro cytotoxicity assay (CellTiter-Glo); type: cell-based; settings: Homo sapiens, 72 h exposure, CellTiter-Glo
Experimental: as §2

NCI-H522 = assay: In vitro cytotoxicity assay (CellTiter-Glo); type: cell-based; settings: Homo sapiens, 72 h exposure, CellTiter-Glo
Experimental: as §2

AS283 = assay: In vitro cytotoxicity assay (CellTiter-Glo); type: cell-based; settings: 72 h exposure, CellTiter-Glo
Experimental: as §2

NCI-H23 = assay: In vitro cytotoxicity assay (CellTiter-Glo); type: cell-based; settings: Homo sapiens, 72 h exposure, CellTiter-Glo
Experimental: as §2

[13] = cells exposed for 24 h, read-out: GI50 values (μM) HT29
[14] = cells exposed for 24 h, read-out: GI50 values (μM) Hop62
[15] = cells exposed for 24 h, read-out: GI50 values (μM) A2780
[16] = SRB assay, cells exposed for 24 h, read-out: GI50 values (μM) MCF7
[17] = Caco-2, percent recovery A -> B
[18] = Caco-2, percent recovery B -> A

Nc1ccn([C@@H]2S[C@H](CO)[C@@H](O)[C@@H]2F)c(=O)n1 [4′-thio-FAC]
resistance of PANC-1 in vitro (shown previously) (PANC-1 [1]): resistant

O=c1[nH]c(=O)n([C@H]2C[C@H](O)[C@@H](CO)O2)cc1F [Floxuridine, reference compound]
Papp A→B (in vitro [2]): 0.75 ×10⁻⁶ cm/s | Papp B→A (in vitro [2]): 1.47 ×10⁻⁶ cm/s | efflux ratio (in vitro [2]): 2 | Significant efflux (Caco-2 cells [3]): No | permeability across Caco-2 monolayers (in words) (Caco-2 cells [3]): poor permeability | IC50 (MIA PaCa-2): 54 nM | IC50 (HT-29): 90 nM | IC50 (HCT-116): 32 nM | GI50 (HT29; [13]): 25 µM | GI50 (Hop62; [14]): 0.24 µM | GI50 (A2780; [15]): 0.065 µM | GI50 (MCF7; [16]): 0.15 µM | Peak Area of measured floxuridine ([4]; HPLC, supernatant of MCF-7 culture after 48 h with test article): 119819 | concentration of floxuridine estimated in culture medium ([4]; after cells were treated with test article): 24.44 | Calculated Concentration (μg/mL) of floxuridine ([4]; diluted sample (10 μL diluted to 200 μL), MCF-7 culture supernatant, 48 h): 1.211 µg/mL | Total Calculated Concentration in the sample using dilution factor ([4]; floxuridine in MCF-7 culture supernatant, 48 h, nominal 24.6 μg/mL): 24.22 | Significant efflux (MDCK cells [5]): No | permeability through MDCK monolayers (in words) (MDCK cells [5]): poor permeability | GI50 (DU145): 26 µM | recovery ([6]; percent recovery A -> B): 50% | recovery ([6]; percent recovery B -> A): 82% | IC50 (CAKI-1): 110 nM | recovery [7, 17]: 75% | recovery [7, 18]: 91% | Papp A→B (in vitro [8]): < 2.46 ×10⁻⁶ cm/s | Papp B→A (in vitro [8]): < 2.7 ×10⁻⁶ cm/s

Nc1ccn([C@@H]2O[C@H](CO)[C@@H](O)C2(F)F)c(=O)n1 [Gemcitabine, reference compound]
Significant efflux (Caco-2 cells [3]): No | IC50 (MIA PaCa-2): 26 nM | IC50 (HT-29): 111 nM | IC50 (HCT-116): 1.9 nM | GI50 (HT29; 48 h drug exposure, read-out: GI50 (molar concentration) in Cell Line HT29): 2.1 µM | GI50 (HT29; [13]): 2.1 µM | GI50 (COLO205; 48 h drug exposure, read-out: GI50 (molar concentration) in Cell Line COLO205): 0.14 µM | GI50 (COLO205; cells exposed for 24 h, read-out: GI50 values (μM) COLO205): 0.14 µM | GI50 (Hop62; 48 h drug exposure, read-out: GI50 (molar concentration) in Cell Line Hop62): 1.8 µM | GI50 (Hop62; [14]): 1.8 µM | GI50 (HCT15; 48 h drug exposure, read-out: GI50 (molar concentration) in Cell Line HCT15): 0.16 µM | GI50 (HCT15; cells exposed for 24 h, read-out: GI50 values (μM) HCT15): 0.16 µM | GI50 (A2780; 48 h drug exposure, read-out: GI50 (molar concentration) in Cell Line A2780): < 0.1 µM | GI50 (A2780; [15]): < 0.1 µM | GI50 (MCF7; MCF-7 cell line, read-out: GI50 (MCF-7 moderately sensitive)): ~0.1 µM | GI50 (MCF7; SRB assay, 48 h drug exposure, read-out: GI50 (molar concentration) in Cell Line MCF7): < 0.1 µM | GI50 (MCF7; [16]): < 0.1 µM | Significant efflux (MDCK cells [5]): No | GI50 (DU145): < 0.1 µM | resistance of PANC-1 in vitro (shown previously) (PANC-1 [1]): resistant | recovery (in vitro [9]): 100 to 110% | IC50 (PANC-1 [10]): > 1e+06 nM | permeability through MDCK monolayers (in words) (MDCK cells [11]): poor permeability | Papp A→B [6]: 0.17 ×10⁻⁶ cm/s | Papp B→A [6]: 0.12 ×10⁻⁶ cm/s | efflux ratio [6]: 0.7 | recovery ([6]; percent recovery A -> B): 96% | recovery ([6]; percent recovery B -> A): 95% | IC50 (CAKI-1): 8.3 nM | permeability across Caco-2 monolayers (in words) (Caco-2 cells [12]): poor permeability | Papp A→B [7]: 0.3 ×10⁻⁶ cm/s | Papp B→A [7]: 0.42 ×10⁻⁶ cm/s | efflux ratio [7]: 1.4 | recovery [7, 17]: 90% | recovery [7, 18]: 89% | IC50 (K-562): 697 nM | IC50 (CCRF-CEM): 7 nM | IC50 (DLD-1): 22 nM | IC50 (NCI-H460): 14 nM | IC50 (SW-620): 49 nM | IC50 (RL): 281 nM | IC50 (HL-60): 1.7 nM | IC50 (NCI-H522): 4.4 nM | IC50 (AS283): 124 nM | IC50 (NCI-H23): 6.9 nM
